What was measured:
[1] = system: TGF-β activated NIH3T3 cells; experiment: ROS inhibition in TGF-β activated NIH3T3 cells (Fluorometric Hydrogen Peroxide Assay Kit); type: cell-based, mouse
Method: Based on literature and Chinese medicine pharmacology, 10 anti-fibrosis TCMs were selected to screen the ROS inhibition effects on TGF-β activated NIH3T3 cells. NIH3T3 cells were pre-stimulated with 10 ng/mL TGF-β for 24 h and 2×10^3 cells/well were seeded in a 96-well black plate. Then, the cells were treated with different TCMs. After these drugs were added, the cells were further cultured for 48 h. Then the concentration of ROS was determined with the Fluorometric Hydrogen Peroxide Assay Kit according to the manufacturer's instructions. The fluorescence intensity measured by using a fluorescence microplate reader (FLx800, Biotek Instrument Inc., Winooski, VT, USA) at excitation and emission wavelengths of 485 and 530 nm, respectively.

NIH3T3 cells = type: cell-based, mouse; details: different concentrations, within 48 hours
Method: 1.4.4. Cytotoxicity of Puerarin. The addition of puerarin and nanoPue to NIH3T3 cells was the same as the ROS assay. After 48 h of incubation, the culture medium was discarded and the cell layers were washed twice with PBS. Then 100 μL culture medium and 10 μL MTT solution (5 mg/mL) were added and incubated for 4 h at 37° C. After the supernatant was removed, 150 μL DMSO was added and OD value was determined at 492 nm by using a multidetection microplate reader (Plate CHAMELEONTM V-Hidex). The cell viability rate of each concentration was calculated according to formula (1).
Cell viability %=(ODdosing group/ODcontrol group)×100% (1)

[2] = literature statement; cited from earlier work

Substance: Puerarin
- ROS inhibition activity at different concentrations ([1]; TGF-β activated NIH3T3 cells, different concentrations): concentration-dependent ROS downregulation pattern
- amount of ROS in TGF-β activated NIH3T3 cells ([1]; screen of ten natural compounds, 15 μg/mL, 48 h, compared with other natural compounds): significantly reduced
- cytotoxicity in NIH3T3 cells (cell viability, MTT) (NIH3T3 cells): no cytotoxicity
- solubility [2]: poorly soluble
